# Patent US9962403B2, “Formulation drug of sodium ion and calcium ion for treating cancer, tumor and nonmalignancy” (priority 2011, dated 2018)
# Like-named read-outs stand apart in the source and are kept apart here.
# Legend:
# [1] = for toxicity of high concentration solutions injected intramuscularly: paralysis of legs, cardiovascular and pulmonary failure, death
# Experimental: First, potential roles of Na^+, K^+, Ca^2+ and Mg^2+ in treatment of tumor and cancer were tested. In vivo experiments in BALB/c mice were performed. High concentration solutions of Na^+, K^+, Ca^2+ and Mg^2+ were injected intramuscularly. […] Experiments were focused on high concentrations of Na^+ and Ca^2+ solutions.
# At the beginning, in vivo toxicity of high concentrations of Na^+, Ca^2+, K^+, and Mg^2+ in BALB/c mice was examined.
# BALB/c mice were housed and inbreeded in the contracted university animal facilities that was in accordance with the NIH regulation. Body weight of the BALB/c mice at the experiment was 30±g. The toxicity test was performed using intramuscular injection with 0.2ml of 35% NaCl, 35% CaCl2, 34% KCl or 35% MgCl2 in a mouse, respectively.
# In total, 20 BALB/c mice (10 males and 10 females) were randomly divided into 5 groups, with 4 mice in each group.
# tumors = experiment: Earlier intratumoral injection of arsenic; type: in vivo, mice
# Text: An occasional opportunity sparked this invention. […] One day, the inventor went shopping in a Chinese supermarket and bought a dozen salted duck eggs. On the way back home, […] wondered why these salted duck eggs could be preserved at room temperature for years without rotting. The answer is that proteins and yolks in salted duck eggs are coagulated or clotted by high concentration of salt (sodium chloride), in particular by high concentration of sodium ions. The inventor linked this phenomenon to cell biology, cell physiology, membrane potential, ion science and cancer treatment, and presumed that high concentrations of sodium chloride might coagulate or clot proteins in cancer cells like what occurs in salted duck eggs.
# [2] = test system: 18 types of human cancer cell lines; experiment: Ex vivo killing test in tissue culture (Trypan blue exclusion or flow cytometry); type: cell-based
# Experimental: Tumor cells were cultured in DMEM or RPMI1640 medium supplemented with 10% fetal bovine serum (FCS). The medium in the control group was free of the “medicinal ion bomb” solution. […] Mortality of cancer cells was evaluated by Trypan blue exclusion test or flow cytometry.
# The role of the “medicinal ion bomb” in killing cancer cells was tested in tissue culture. Cancer cells were seeded in Petri dish using DMEM or RPMI1640 medium supplemented with 10% FCS. Each type of cancer cell line was prepared at 2×10^6 cells/ml in a 5ml plastic tube. […] Three to five minutes later, 0.5% Trypan Blue was added and mixed with the cell suspension for 2 minutes. The number of dead cancer cells was counted under an inverted microscope. Selected samples of treated cancer cell suspension for flow cytometer were prepared in phosphate-buffered saline (PBS) and mortality of cells was assayed using flow cytometer (Beckman Coulter Inc., CA).
# [3] = test system: MCF7 human breast cancer cells; experiment: Fluorescent labeled Na+/Ca2+ probe technique, influx and death of cancer cells; type: cell-based
# Text: Fluorescent labeled ion probe technique was used in study of the influx of Na^+ and Ca^2+ from the extracellular fluid into intracellular fluid of cancer cells.
# [4] = test system: MCA207 mouse sarcoma, MC38 mouse colorectal cancer and B16F1 mouse melanoma; details: for occurrence of tumor necrosis: high concentrations, evaluated 24, 48 and 72 hours after treatment; for average necrosis of all treated tumors: 48 hours
# Text: Three animal tumor models of MCA207 mouse sarcoma, MC38 mouse colorectal cancer and B16F1 mouse melanoma were established in C57BL6 mice. The treatment of intratumoral injection started when tumors reached 8mm×8mm in size.
# Thirty-six C57BL6 tumor mice were randomly divided into three groups according to tumor types (12 animals in each group). Then, animals in each group were further divided into 4 subgroups (3 tumor mice in each subgroup). Tumor animals in subgroup-1, as the control, were treated by intratumoral injection with 0.1ml of normal saline. Tumor animals in subgroup-2 were treated by intratumoral injection with 0.1ml of various concentrations of sodium chloride solution.
# Twenty-four, 48 and 72 hours after treatment, experimental results were evaluated by measuring the dimension of necrotic area of the treated tumors using a ruler.
# liver tumor = details: 36.5% hypertonic saline; cited from earlier work
# multiple glomus tumors = details: 23.4% solution; 4 sessions of intralumenal injection in 6 months; one patient; cited from earlier work
# [5] = 0.2ml of 35% NaCl, 35% CaCl2, 34% KCl or 35% MgCl2, mouse 30 g
smiles,measurement,setting,value
[Cl-].[K+] [KCl],outcome of animals after intramuscular injection,[1]; [5],died from cardiopulmonary failure 3 hours after treatment
same,toxicity of high concentration solutions injected intramuscularly,[1],toxic
[Cl-].[Cl-].[Mg+2] [MgCl2],outcome of animals after intramuscular injection,"[1]; mouse, in vivo",not well absorbed
same,toxicity of high concentration solutions injected intramuscularly,[1],toxic
[AsH3] [arsenic],treatment outcome,tumors,did not work well
"[Ca+2].[Cl-].[Cl-] [calcium chloride solution, calcium chloride]",effect of tissue culture medium containing 250 mM of Ca2+,[2],"induced sickness, apoptosis and death"
same,effect of Ca2+ solutions on cancer cells,"[3]; 250 mM, 1.0 M, 1.5 M, 2.0 M and 3.0 M, Ca2+ probe fluorescence microscopy",immediate sickness or death of cancer cells
same,outcome of animals after intramuscular injection,[1]; 0.2ml of 17.5% CaCl2,survived the experiment
same,outcome of animals after intramuscular injection,[1]; [5],died in 3 hours after treatment
same,maximal effective treatment concentration,"[4]; Ca2+ alone or in combination, intratumoral injection, room temperature",6.0 M
same,local toxicity at the injection site,[4]; high concentration of calcium chloride solution,toxic that causes unhealed wound at the injection site
same,occurrence of tumor necrosis,[4],necrosis occurred in all tumors
same,necrosis of treated tumors,"[4]; single intratumoral injection 0.1 ml of 250 mM, 1.0 M, 1.5 M, 2.0 M and 3.0 M, 48 hours posttreatment",coagulating necrosis of all treated tumors
"[Cl-].[Na+] [sodium chloride solution, sodium chloride]",time to kill MCF7 cells,[3]; 5.0479 M of Na+ solution alone,20 ± 4 s
same,treatment outcome,liver tumor,none of the tumors were successfully treated
same,outcome of animals after intramuscular injection,[1]; [5],survived the experiment
same,treatment outcome,multiple glomus tumors,did not result in successful treatment
same,average necrosis of all treated tumors,[4]; 3.0 M solution,30%±10
same,minimal effective treatment concentration,"[4]; Na+ alone or in combination, intratumoral injection, room temperature, listed as Na^+ solution",2.0 M
same,occurrence of tumor necrosis,[4],necrosis occurred in all tumors
same,average necrosis of all treated tumors,[4]; single intratumoral injection 0.1 mL of 5.0479 M solution,90%± 5
same,average necrosis of all treated tumors,"[4]; single intratumoral injection 0.1 mL of 5.0479 M solution, listed as Na^+ solution",90%±5
